These results are taken from patent publication US20060247320A1, “Compounds for inhibiting KSP kinesin activity” (priority 2005, published 2006).

What is called IC50 is the concentration at which inhibition is half-maximal.

Structures are written as SMILES. A value given as a limit tells only on which side of the number the result lay.

For one test, the target named is T1, KSP motor domain (Homo sapiens, UniProt P52732).
T1 sequence (P52732 18-359 limits assumed): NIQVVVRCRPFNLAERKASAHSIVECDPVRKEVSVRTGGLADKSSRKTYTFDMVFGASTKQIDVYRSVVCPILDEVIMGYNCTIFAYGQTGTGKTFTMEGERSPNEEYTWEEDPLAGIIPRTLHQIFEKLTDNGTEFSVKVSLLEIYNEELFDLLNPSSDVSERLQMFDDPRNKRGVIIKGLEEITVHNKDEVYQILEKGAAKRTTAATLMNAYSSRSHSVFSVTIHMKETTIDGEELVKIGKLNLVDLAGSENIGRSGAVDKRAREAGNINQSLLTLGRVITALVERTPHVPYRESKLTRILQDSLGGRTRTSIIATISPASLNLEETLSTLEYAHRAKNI
The test can be described thus: biochemical. The conditions noted are these: KSP inhibitory activity, end-point assay; class symbols (Table 1).
Take `CC(C)(C)C1CCc2nc3sc(C(=O)NCC(N)=O)cc3cc2C1` (centres unmarked) [Example 81]: the “IC50 (nM)” value is given as “A/B”.

Regarding `CC(C)(C)C1CCc2nc3sc(NC(N)=O)cc3cc2C1` (centres unmarked) [Example 125, (6-tert-Butyl-5,6,7,8-tetrahydrothieno[2,3-b]quinolin-2-yl)urea], the “IC50 (nM)” value was “B/C”.

As for `CC(C)(C)C1CCc2nc3sc(NC=O)nc3cc2C1` (centres unmarked) [Example 134, N-(7-tert-Butyl-5,6,7,8-tetrahydrothiazolo[5,4-b]quinolin-2-yl)-formamide], the “IC50 (nM)” value is listed as “B/C”.

The same test, now with this note: KSP inhibitory activity, end-point assay; class symbols (Table 1); read-out: IC50.
Consider `CC(CO)NC(=O)c1cc2cc3c(nc2s1)CCC(C(C)(C)C)C3` (centres unmarked) [Example 76], for which the IC50 was 1 to 10 µM.

For `CC(C)(C)C1CCc2nc3sc(C(=O)Nc4ccccc4)cc3cc2C1` (centres unmarked) [Example 77], the half-maximal inhibitory concentration (IC50) was above 10 µM.

Turning to `CC(C)(C)C1CCc2nc3sc(C(=O)NCc4ccccc4)cc3cc2C1` (centres unmarked) [Example 78], the IC50 is above 10 µM.

For the compound `CCNC(=O)c1cc2cc3c(nc2s1)CCC(C(C)(C)C)C3` (centres unmarked) [Example 79], the IC50 fell in the range of 1 to 10 µM.

In the case of `CN(C)C(=O)c1cc2cc3c(nc2s1)CCC(C(C)(C)C)C3` (centres unmarked) [Example 80], the 50% inhibitory concentration (IC50) is above 10 µM.

For `CC(CO)NC(=O)c1cc2cc3c(nc2s1)CCC(C(C)(C)C)C3` (centres unmarked) [Example 82], the IC50 is 1 to 10 µM.

As to `CC(CO)NC(=O)c1cc2cc3c(nc2s1)CCC(C(C)(C)C)C3` (centres unmarked) [Example 83], the IC50 was 0.1 to 1 µM.

Take `COC(=O)[C@@H]1C[C@@H](O)CN1C(=O)c1cc2cc3c(nc2s1)CCC(C(C)(C)C)C3` (some centres unmarked) [Example 84]: the IC50 is 1 to 10 µM.

As to `CC(C)(C)C1CCc2nc3sc(C(=O)N[C@@H]4CCC[C@H]4O)cc3cc2C1` (some centres unmarked) [Example 85], the IC50 was in the range of 1 to 10 µM.

As for `CC(C)(C)C1CCc2nc3sc(C(=O)N[C@H]4CCC[C@@H]4O)cc3cc2C1` (some centres unmarked) [Example 86], the IC50 was in the range of 1 to 10 µM.

As for `CC(C)(C)C1CCc2nc3sc(C(=O)N4CCC[C@@H]4C(=O)O)cc3cc2C1` (some centres unmarked) [Example 88], the IC50 is above 10 µM.

For `COC(=O)[C@H]1CCCN1C(=O)c1cc2cc3c(nc2s1)CCC(C(C)(C)C)C3` (some centres unmarked) [Example 89], the IC50 was above 10 µM.

For the compound `COC(=O)[C@H]1CCCCN1C(=O)c1cc2cc3c(nc2s1)CCC(C(C)(C)C)C3` (some centres unmarked) [Example 90], the half-maximal inhibitory concentration (IC50) was above 10 µM.

As for `CC(C)(C)C1CCc2nc3sc(C(=O)N4CCCC[C@@H]4C(=O)O)cc3cc2C1` (some centres unmarked) [Example 91], the concentration for half-maximal inhibition (IC50) was above 10 µM.

With `COC(=O)[C@H]1C[C@@H](O)CN1C(=O)c1cc2cc3c(nc2s1)CCC(C(C)(C)C)C3` (some centres unmarked) [Example 92], the IC50 was above 10 µM.

In the case of `CC(C)(C)C1CCc2nc3sc(C(=O)N4C[C@H](O)C[C@@H]4C(=O)O)cc3cc2C1` (some centres unmarked) [Example 93], the IC50 is above 10 µM.

On to `COC(=O)C(CO)NC(=O)c1cc2cc3c(nc2s1)CCC(C(C)(C)C)C3` (centres unmarked) [Example 94], for which the IC50 was 0.1 to 1 µM.

For the compound `CC(C)(C)C1CCc2nc3sc(C(=O)N4CCNCC4)cc3cc2C1` (centres unmarked) [Example 95], the IC50 was above 10 µM.

For the compound `CC(C)(C)C1CCc2nc3sc(C(=O)NC(CO)CO)cc3cc2C1` (centres unmarked) [Example 96], the IC50 lay in the range of 0.1 to 1 µM.

With `CN1CCN(C(=O)c2cc3cc4c(nc3s2)CCC(C(C)(C)C)C4)CC1` (centres unmarked) [Example 97], the IC50 is above 10 µM.

Regarding `CC(C)(C)C1CCc2nc3sc(C(=O)NC(CO)(CO)CO)cc3cc2C1` (centres unmarked) [Example 98], the IC50 was in the range of 1 to 10 µM.

Consider `CC(C)(C)C1CCc2nc3sc(C(=O)NCCN)cc3cc2C1` (centres unmarked) [Example 99], for which the 50% inhibitory concentration (IC50) is below 0.1 µM.

For `CC(C)(C)C1CCc2nc3sc(C(=O)NC(CO)C(N)=O)cc3cc2C1` (centres unmarked) [Example 100], the concentration for half-maximal inhibition (IC50) fell in the range of 0.1 to 1 µM.

With `CC(C)(C)C1CCc2nc3sc(C(=O)NCCCN)cc3cc2C1` (centres unmarked) [Example 101], the 50% inhibitory concentration (IC50) was in the range of 0.1 to 1 µM.

As to `CC(C)(C)C1CCc2nc3sc(C(=O)NCCCO)cc3cc2C1` (centres unmarked) [Example 102], the concentration for half-maximal inhibition (IC50) lay within 0.1 to 1 µM.

Regarding `CC(O)CNC(=O)c1cc2cc3c(nc2s1)CCC(C(C)(C)C)C3` (centres unmarked) [Example 103], the IC50 was 1 to 10 µM.

Turning to `CC(C)(C)C1CCc2nc3sc(C(=O)NO)cc3cc2C1` (centres unmarked) [Example 104, 6-tert-Butyl-5,6,7,8-tetrahydrothieno[2,3-b]quinoline-2-carboxylic acid hydroxyamide], the IC50 is below 0.1 µM.

Consider `CC(C)(C)C1CCc2nc3sccc3cc2C1` (centres unmarked) [Example 105, 6-tert-Butyl-5,6,7,8-tetrahydrothieno[2,3-b]quinoline], for which the IC50 lay within 1 to 10 µM.

For the compound `CC(C)(C)C1CCc2nc3sc(C#N)c(Cl)c3cc2C1` (centres unmarked) [Example 111, 6-tert-Butyl-3-chloro-5,6,7,8-tetrahydrothieno[2,3-b]quinoline-2-carbonitrile], the IC50 was above 10 µM.

For `CC(C)(C)C1CCc2nc3sc(C#N)c(Br)c3cc2C1` (centres unmarked) [Example 112, 6-tert-Butyl-3-bromo-5,6,7,8-tetrahydrothieno[2,3-b]quinoline-2-carbonitrile], the IC50 was above 10 µM.

Consider `CCC(C)(C)C1CCc2nc3sc(C#N)cc3c(Cl)c2C1` (centres unmarked) [Example 113], for which the concentration for half-maximal inhibition (IC50) is 1 to 10 µM.

With `CCC(C)(C)C1C=Cc2nc3sc(C(N)=O)cc3cc2C1` (centres unmarked) [Example 114], the IC50 was below 0.1 µM.

Regarding `CCC(C)(C)C1CCc2nc3sc(C(N)=O)cc3c(Cl)c2C1` (centres unmarked) [Example 115], the IC50 lay in the range of 1 to 10 µM.

As to `CCC(C)(C)C1CCc2nc3sc(C(N)=O)cc3c(O)c2C1` (centres unmarked) [Example 116], the IC50 was above 10 µM.

`CC(C)(C)C1CCc2nc3sc(C(N)=O)c(N)c3cc2C1` (centres unmarked) [Example 118, 3-Amino-6-tert-butyl-5,6,7,8-tetrahydrothieno[2,3-b]quinoline-2-carboxylic acid amide]: the half-maximal inhibitory concentration (IC50) fell in the range of 1 to 10 µM.

As for `CC(C)(C)C1CCc2nc3sc4c(=O)[nH]nnc4c3cc2C1` (centres unmarked) [Example 119, 7-tert-Butyl-6,7,8,9-tetrahydro2H-11-thia-2,3,4,10-tetraazabenzo[b]fluoren-1-one], the IC50 fell in the range of 1 to 10 µM.

For `CC(C)(C)C1CCc2nc3sc(S(C)(=O)=O)c(N)c3cc2C1` (centres unmarked) [Example 120, 6-tert-Butyl-2-methanesulfonyl-5,6,7,8-tetrahydrothieno[2,3-b]quinolin-3-ylamine], the IC50 was 0.1 to 1 µM.

On to `CC(C)(C)C1CCc2nc3sc(S(C)(=O)=O)c(O)c3cc2C1` (centres unmarked) [Example 121, 6-tert-Butyl-2-methanesulfonyl-5,6,7,8-tetrahydrothieno[2,3-b]quinolin-3-ol], for which the IC50 was above 10 µM.

For `CC(C)(C)C1CCc2nc3sc(S(C)(=O)=O)cc3cc2C1` (centres unmarked) [Example 122, 6-tert-Butyl-2-methanesulfonyl-5,6,7,8-tetrahydrothieno[2,3-b]quinoline], the IC50 was 1 to 10 µM.

Consider `CC(C)(C)C1CCc2nc3sc(S(N)(=O)=O)cc3cc2C1` (centres unmarked) [Example 123, 6-tert-Butyl-5,6,7,8-tetrahydrothieno[2,3-b]quinoline-2-sulfonic acid amide], for which the IC50 lay in the range of 0.1 to 1 µM.

For `CC(=O)Nc1cc2cc3c(nc2s1)CCC(C(C)(C)C)C3` (centres unmarked) [Example 124, N-(6-tert-Butyl-5,6,7,8-tetrahydrothieno[2,3-b]quinolin-2-yl)acetamide], the IC50 fell in the range of 1 to 10 µM.

Take `CC(C)(C)C1CCc2nc3c(cc2C1)c(N)c(C#N)[s+]3[O-]` (centres unmarked) [Example 126, 3-Amino-6-tert-butyl-1-oxo-5,6,7,8-tetrahydro-1H-1λ^4-thieno[2,3-b]quinoline-2-carbonitrile]: the IC50 was in the range of 1 to 10 µM.

On to `CC(C)(C)C1CCc2nc3c(cc2C1)C(N)=C(C#N)S3(=O)=O` (centres unmarked) [Example 127, 3-Amino-6-tert-butyl-1,1-dioxo-5,6,7,8-tetrahydro-1H-1λ^6-thieno[2,3-b]quinoline-2-carbonitrile], for which the half-maximal inhibitory concentration (IC50) fell in the range of 1 to 10 µM.

As for `CC(C)(C)C1CCc2nc3sc(S)nc3cc2C1` (centres unmarked) [Example 128, 7-tert-Butyl-5,6,7,8-tetrahydrothiazolo[5,4-b]quinoline-2-thiol], the half-maximal inhibitory concentration (IC50) was 0.1 to 1 µM.

Take `CSc1nc2cc3c(nc2s1)CCC(C(C)(C)C)C3` (centres unmarked) [Example 129, 7-tert-butyl-2-methylsulfanyl-5,6,7,8-tetrahydrothiazolo[5,4-b]quinoline]: the IC50 was above 10 µM.

On to `CC(C)(C)C1CCc2nc3sc(C#N)nc3cc2C1` (centres unmarked) [Example 130, 7-tert-Butyl-5,6,7,8-tetrahydrothiazolo[5,4-b]quinoline-2-carbonitrile], for which the IC50 was 1 to 10 µM.

As for `CC(C)(C)C1CCc2nc3sc(C(N)=O)nc3cc2C1` (centres unmarked) [Example 131, 7-tert-Butyl-5,6,7,8-tetrahydrothiazolo[5,4-b]quinoline-2-carboxylic acid amide], the IC50 is 0.1 to 1 µM.

On to `CC(C)(C)C1CCc2nc3sc(NC(N)=O)nc3cc2C1` (centres unmarked) [Example 132, (7-tert-Butyl-5,6,7,8-tetrahydrothiazolo[5,4-b]quinolin-2-yl)-urea], for which the 50% inhibitory concentration (IC50) was in the range of 1 to 10 µM.

For `CC(C)(C)C1CCc2nc3sc(N)nc3cc2C1` (centres unmarked) [Example 133, 7-tert-Butyl-5,6,7,8-tetrahydrothiazolo[5,4-b]quinolin-2-ylamine], the IC50 was above 10 µM.

As to `CC(=O)Nc1nc2cc3c(nc2s1)CCC(C(C)(C)C)C3` (centres unmarked) [Example 135, N-(7-tert-Butyl-5,6,7,8-tetrahydrothiazolo[5,4-b]quinolin-2-yl)acetamide], the half-inhibitory concentration (IC50) lay in the range of 0.1 to 1 µM.

In the case of `CC(C)(C)C1CCc2nc3sc(CO)cc3cc2C1` (centres unmarked) [Example 144], the IC50 is below 0.1 µM.

Take `CC(C)(C)C1CCc2nc3sc(CCl)cc3cc2C1` (centres unmarked) [Example 145]: the IC50 is 0.1 to 1 µM.

`COCc1cc2cc3c(nc2s1)CCC(C(C)(C)C)C3` (centres unmarked) [Example 146]: the half-maximal inhibitory concentration (IC50) was in the range of 1 to 10 µM.

The same test, now with this note: exact IC50 values, end-point assay (Table 2); read-out: IC50.
For `CC(C)(C)C1CCc2nc3sc(C(=O)NCCN)cc3cc2C1` (centres unmarked) [Example 99], the concentration for half-maximal inhibition (IC50) was 0.022 µM.

`CC(C)(C)C1CCc2nc3sc(CO)cc3cc2C1` (centres unmarked) [Example 144]: the IC50 was found to be 0.06 µM.

The test is the same for the next values; noted with them: number printed in brackets under a borderline class (A/B, B/C) in Table 1 of b1103; read-out: IC50.
With `CC(C)(C)C1CCc2nc3sc(C(=O)NCC(N)=O)cc3cc2C1` (centres unmarked) [Example 81], the IC50 worked out at 0.1 µM.
